Each molecule was assayed against T1, human glucocorticoid receptor (hGR) (Homo sapiens, UniProt P04150) (assay: human glucocorticoid receptor binding assay (displacement of 3(H) Triamcinolone acetonide)). Conditions: not given.
T1 construct: made in house; host or cells: Sf21 insect cells infected with baculovirus hGR, OR IM9 lymphoblast cell line (endogenous hGR)
T1 sequence (P04150 1-777): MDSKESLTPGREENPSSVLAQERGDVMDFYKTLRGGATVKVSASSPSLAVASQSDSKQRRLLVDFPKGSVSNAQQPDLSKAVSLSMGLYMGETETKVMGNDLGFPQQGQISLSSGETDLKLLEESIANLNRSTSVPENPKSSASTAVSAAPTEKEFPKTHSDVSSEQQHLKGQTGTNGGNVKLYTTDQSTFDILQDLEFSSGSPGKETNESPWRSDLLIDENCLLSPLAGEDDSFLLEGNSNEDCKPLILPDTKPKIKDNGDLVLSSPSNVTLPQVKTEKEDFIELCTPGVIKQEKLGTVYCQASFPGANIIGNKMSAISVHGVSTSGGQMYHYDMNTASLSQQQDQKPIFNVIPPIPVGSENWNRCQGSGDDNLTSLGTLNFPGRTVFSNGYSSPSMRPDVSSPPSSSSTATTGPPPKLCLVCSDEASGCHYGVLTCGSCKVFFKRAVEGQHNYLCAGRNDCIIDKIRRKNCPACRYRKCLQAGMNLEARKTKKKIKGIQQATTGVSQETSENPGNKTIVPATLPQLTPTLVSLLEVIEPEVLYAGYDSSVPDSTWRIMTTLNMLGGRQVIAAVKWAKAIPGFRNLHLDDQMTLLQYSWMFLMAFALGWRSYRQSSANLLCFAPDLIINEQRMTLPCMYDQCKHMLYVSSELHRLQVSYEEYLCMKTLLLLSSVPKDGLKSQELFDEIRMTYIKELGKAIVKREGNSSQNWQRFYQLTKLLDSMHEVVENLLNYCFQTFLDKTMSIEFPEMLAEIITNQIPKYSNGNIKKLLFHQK
Method: A human glucocorticoid receptor binding assay was carried out to determine the extent to which the compounds of this invention have the ability to bind to human glucocorticoid receptors. This binding ability may be indicative of the antiinflammatory activity of the compound. The test was carried out as follows.
Human glucocorticoid receptors were prepared from either insect cells (Sf21) infected with baculovirus hGR or from a lymphoblast cell line which expresses high levels of endogenous hGR (IM9). The receptor binding reactions, with or without test compounds, were set up in 96-well microtiter plates which were previously siliconized with SIGMACOTE™, a chlorinated organopolysiloxane in heptane. The binding components, 3(H) Triamcinolone acetonide (TAA), glycerol/molybdate-containing buffer and unlabeled compounds were added to the wells using a combination of BIOMEK laboratory automation system and repeat pipettes. After four hours of incubation, the samples were precipitated with polyethylene glycol and filtered through Whatman GF/F paper using a TOMTEK cell harvester. The filter mate with 96 samples were bound to a solid-phase scintillant and directly counted in a BETAPLATE counter. […] The activity of test compounds to displace 3(H) TAA binding to hGR is also expressed as percent inhibition at 1 μM.

| Structure (SMILES) | IC50 [µM] |
| --- | --- |
| O=C(CCc1c[nH]c2ccccc12)NCC(c1ccccc1)C(c1ccccc1)c1ccccc1 (centres unmarked) [Compound 48] | 0.605 |
| O=C(Cc1ccccn1)NCC(c1ccccc1)C(c1ccccc1)c1ccccc1 (centres unmarked) [Compound 49] | 0.2 |
| O=C(Cc1ccccc1)NCC(c1ccccc1)C1c2ccccc2-c2ccccc21 (centres unmarked) [Compound 66] | 0.888 |
| O=C(Cc1cccs1)NCC(c1ccccc1)C1c2ccccc2-c2ccccc21 (centres unmarked) [Compound 71] | 0.82 |
| O=C(Cc1ccccc1)NCC1(c2ccccc2)CC1(c1ccccc1)c1ccccc1 (centres unmarked) [Compound 78] | 1.2 |
| COc1ccc(CC(=O)NCC2(c3ccccc3)CC2(c2ccccc2)c2ccccc2)cc1OC (centres unmarked) [Compound 79] | 1 |
| O=C(Cc1ccccc1Cl)NCC1(c2ccccc2)CC1(c1ccccc1)c1ccccc1 (centres unmarked) [Compound 80, N-(2chlorophenyl)acetyl-1,2,2-triphenylcyclopropylmethylamine] | 0.955 |
| O=C(NCC1(c2ccccc2)CC1(c1ccccc1)c1ccccc1)C(c1ccccc1)c1ccccc1 (centres unmarked) [Compound 82] | 0.51 |
| CCCC(=O)NCC1(c2ccccc2)CC1(c1ccccc1)c1ccccc1 (centres unmarked) [Compound 83] | 0.573 |
| CC(C)C(=O)NCC1(c2ccccc2)CC1(c1ccccc1)c1ccccc1 (centres unmarked) [Compound 84] | 0.612 |
| CC(C)(C)C(=O)NCC1(c2ccccc2)CC1(c1ccccc1)c1ccccc1 (centres unmarked) [Compound 86] | 0.665 |
| CCCCC(=O)NCC1(c2ccccc2)CC1(c1ccccc1)c1ccccc1 (centres unmarked) [Compound 87] | 0.681 |
| O=C(Cc1ccsc1)NCC1(c2ccccc2)CC1(c1ccccc1)c1ccccc1 (centres unmarked) [Compound 89] | 0.57 |
| O=C(NCC1(c2ccccc2)CC1(c1ccccc1)c1ccccc1)Nc1ccccc1 (centres unmarked) [Compound 92] | 1.49 |
| O=C(NCC1(c2ccccc2)CC1(c1ccccc1)c1ccccc1)Oc1ccccc1 (centres unmarked) [Compound 96] | 0.927 |
| O=C(NCC1(c2ccccc2)CC1(c1ccccc1)c1ccccc1)Oc1ccc(Cl)cc1 (centres unmarked) [Compound 97] | 0.157 |

Same assay, conditions: concentration not given

| Structure (SMILES) | hGR, value given as % [%] |
| --- | --- |
| CC(C)CC(=O)NCC1(c2ccccc2)CC1(c1ccccc1)c1ccccc1 (centres unmarked) [Compound 85] | 68 |
| O=C(NCC1(c2ccccc2)CC1(c1ccccc1)c1ccccc1)Nc1ccccc1F (centres unmarked) [Compound 93] | 17 |
| COc1ccccc1NC(=O)NCC1(c2ccccc2)CC1(c1ccccc1)c1ccccc1 (centres unmarked) [Compound 94] | 13 |
| O=C(NCc1ccccc1)NCC1(c2ccccc2)CC1(c1ccccc1)c1ccccc1 (centres unmarked) [Compound 95] | 4 |

What follows are molecules tested on human progesterone receptor (hPR) (assay: human progesterone receptor binding assay (displacement of 3(H) R5020 Promegestone)). Conditions: not given.
Method: A human progesterone receptor binding assay was performed in order to determine selectivity of the compounds, as follows. Human progesterone receptors were prepared from either insect cells (SF21) infected with baculovirus hPR A, or from a breast cancer cell line, T47D, which expresses high levels of endogenous hPR. The receptor binding reactions, with or without test compounds, were set up in 96-well microtiter plates which were previously siliconized with SIGMACOTE. The binding components, 3(H) R5020 Promegestone, a high affinity ligand for the progesterone receptors, glycerol/molybdate-containing buffer and unlabeled compounds were added to the wells using a combination of BIOMEK laboratory automation system and repeat pipettes. After overnight incubation, the samples were precipitated with polyethylene glycol and filtered through Whatman GF/F paper using a TOMTEK cell harvester. The filter mate with 96 samples were bound to a solid-phase scintillant and directly counted in the BETAPLATE counter. Only those compounds that were active in the human glucocorticoid receptor assay set forth in Example 30 were used for progesterone receptor binding to determine cross-reactivity profiles, if any. The activity of test compounds to displace 3(H) R5020 binding to hPR is expressed as percent inhibition at the two concentrations, 10^−6 and 10^−5 Molar.

| Structure (SMILES) | hPR % inh 10 μM |
| --- | --- |
| O=C(CCc1c[nH]c2ccccc12)NCC(c1ccccc1)C(c1ccccc1)c1ccccc1 (centres unmarked) [Compound 48] | 19% |
| O=C(Cc1ccccn1)NCC(c1ccccc1)C(c1ccccc1)c1ccccc1 (centres unmarked) [Compound 49] | 11% |
| O=C(Cc1ccccc1)NCC(c1ccccc1)C1c2ccccc2-c2ccccc21 (centres unmarked) [Compound 66] | 18% |
| O=C(Cc1cccs1)NCC(c1ccccc1)C1c2ccccc2-c2ccccc21 (centres unmarked) [Compound 71] | 16% |
| O=C(Cc1ccccc1)NCC1(c2ccccc2)CC1(c1ccccc1)c1ccccc1 (centres unmarked) [Compound 78] | 6% |
| COc1ccc(CC(=O)NCC2(c3ccccc3)CC2(c2ccccc2)c2ccccc2)cc1OC (centres unmarked) [Compound 79] | 24.5% |
| O=C(Cc1ccccc1Cl)NCC1(c2ccccc2)CC1(c1ccccc1)c1ccccc1 (centres unmarked) [Compound 80, N-(2chlorophenyl)acetyl-1,2,2-triphenylcyclopropylmethylamine] | −11% |
| O=C(NCC1(c2ccccc2)CC1(c1ccccc1)c1ccccc1)C(c1ccccc1)c1ccccc1 (centres unmarked) [Compound 82] | −20.4% |
| CCCC(=O)NCC1(c2ccccc2)CC1(c1ccccc1)c1ccccc1 (centres unmarked) [Compound 83] | 45% |
| CC(C)C(=O)NCC1(c2ccccc2)CC1(c1ccccc1)c1ccccc1 (centres unmarked) [Compound 84] | 15.3% |
| CC(C)CC(=O)NCC1(c2ccccc2)CC1(c1ccccc1)c1ccccc1 (centres unmarked) [Compound 85] | 7.2s % |
| CC(C)(C)C(=O)NCC1(c2ccccc2)CC1(c1ccccc1)c1ccccc1 (centres unmarked) [Compound 86] | 12.6% |
| CCCCC(=O)NCC1(c2ccccc2)CC1(c1ccccc1)c1ccccc1 (centres unmarked) [Compound 87] | 19.8% |
| O=C(Cc1ccsc1)NCC1(c2ccccc2)CC1(c1ccccc1)c1ccccc1 (centres unmarked) [Compound 89] | 22% |
| O=C(NCC1(c2ccccc2)CC1(c1ccccc1)c1ccccc1)Nc1ccccc1 (centres unmarked) [Compound 92] | −1% |
| O=C(NCC1(c2ccccc2)CC1(c1ccccc1)c1ccccc1)Nc1ccccc1F (centres unmarked) [Compound 93] | 33.9% |
| COc1ccccc1NC(=O)NCC1(c2ccccc2)CC1(c1ccccc1)c1ccccc1 (centres unmarked) [Compound 94] | −18.6% |
| O=C(NCc1ccccc1)NCC1(c2ccccc2)CC1(c1ccccc1)c1ccccc1 (centres unmarked) [Compound 95] | −14.3% |
| O=C(NCC1(c2ccccc2)CC1(c1ccccc1)c1ccccc1)Oc1ccccc1 (centres unmarked) [Compound 96] | 9.9% |
| O=C(NCC1(c2ccccc2)CC1(c1ccccc1)c1ccccc1)Oc1ccc(Cl)cc1 (centres unmarked) [Compound 97] | 12.5% |

The molecules below were run on oxazolone-induced ear swelling (MOCH) in albino male CD-1 mice (assay: mouse oxazolone-induced contact hypersensitization (MOCH) ear swelling). Conditions: topical to mouse ear, 1 mg, one hour after oxazolone challenge, ear biopsy weight at 24 hours.
Type: in vivo
Method: Several triphenylpropanamide compounds of this invention, having varying affinities for the human glucocorticoid receptor, were tested for topical antiinflammatory activity in mouse ear inflammation models. […] Compounds having receptor affinities closer to hydrocortisone were as nearly active as hydrocortisone in suppressing mouse oxazolone-induced contact hypersensitization (MOCH) and phorbol ester-induced ear edema. The in vivo studies of this example were conducted as follows.
In determining the MOCH using the compounds of this invention, albino male CD-1 mice, 7-9 weeks old were induced on the shaved abdomen with 50 μl of 3% oxazolone in acetone/corn oil (Day 0). On Day 5, a 20 μl volume of 2% oxazolone in acetone was applied to the dorsal left ear of the mouse . Compounds (made in ethanol/propylene glycol, 70:30) were applied to the left ear in 20 μl volume, one hour after oxazolone challenge. The right ear was not treated. The mice were sacrificed by carbon dioxide inhalation 24 hours after oxazolone challenge, the left and right ears were removed and a 7 mm biopsy was removed from each ear and weighed. The difference in biopsy weights between the right and left ears was calculated. Antiinflammatory effects of compounds were evident as an inhibition of the increase in ear weight.

| Structure (SMILES) | Oxazolone Ear Swelling (MOCH) % inhibition vs. Vehicle at 1 mg [%] |
| --- | --- |
| CC(C)CC(=O)NCC1(c2ccccc2)CC1(c1ccccc1)c1ccccc1 (centres unmarked) [Compound 85] | 16 |
| O=C(NCC1(c2ccccc2)CC1(c1ccccc1)c1ccccc1)Nc1ccccc1F (centres unmarked) [Compound 93] | 26 |
| COc1ccccc1NC(=O)NCC1(c2ccccc2)CC1(c1ccccc1)c1ccccc1 (centres unmarked) [Compound 94] | 35 |
| O=C(NCc1ccccc1)NCC1(c2ccccc2)CC1(c1ccccc1)c1ccccc1 (centres unmarked) [Compound 95] | 16 |

From patent publication US6509369B2, “Anti-inflammatory compounds” (Ortho-McNeil Pharmaceutical, Inc., priority 1997, dated 2003)
